Measured values published in the supplement of paper PMC10331698.
± gives the standard deviation of the averaged measurements.

Legend:
Experiment in all cases: LOEC (log10 uM (lowest observed effect concentration))
[1] = compound: C[N+](C)(C)CCCNS(=O)(=O)C(F)(F)C(F)(F)C(F)(F)C(F)(F)C(F)(F)C(F)(F)C(F)(F)C(F)(F)F [Perfluorooctanesulfonamido ammonium iodide]
Method: (§1)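 BioMAP Diversity Plus panel in human primary cell co-cultures, 4 concentrations in duplicate blinded samples. Responses are log10 fold change versus DMSO control, processed with tcpl v2.1.0. A hit is called when responses at any concentration exceed the cutoff (the larger of 3*bmad or log10(1.2)); the lowest observed effect concentration (modl_ga, log10 uM) is reported for hits.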

Perfluorodecanoic acid = compound: O=C(O)C(F)(F)C(F)(F)C(F)(F)C(F)(F)C(F)(F)C(F)(F)C(F)(F)C(F)(F)C(F)(F)F [Perfluorodecanoic acid]
Method: as §1

[2] = compound: O=C(O)C(F)(F)C(F)(F)C(F)(F)C(F)(F)C(F)(F)C(F)(F)C(F)(F)C(F)F [9-H-Perfluorononanoic acid]
Method: as §1

[3] = compound: OCCCC(F)(F)C(F)(F)C(F)(F)C(F)(F)C(F)(F)C(F)(F)C(F)(F)F [7:3 Fluorotelomer alcohol]
Method: as §1

[4] = compound: CCN(CCO)S(=O)(=O)C(F)(F)C(F)(F)C(F)(F)C(F)(F)C(F)(F)C(F)(F)C(F)(F)C(F)(F)F [N-Ethyl-N-(2-hydroxyethyl)perfluorooctanesulfonamide]
Method: as §1

Perfluoroheptanoic acid = compound: O=C(O)C(F)(F)C(F)(F)C(F)(F)C(F)(F)C(F)(F)C(F)(F)F [Perfluoroheptanoic acid]
Method: as §1

[5] = compound: O=C(O)C(F)(F)C(F)(F)C(F)(F)OC(F)(C(F)(F)F)C(F)(F)F [Perfluoro-4-isopropoxybutanoic acid]
Method: as §1

[6] = compound: O=C(O)C(F)(F)OC(F)(F)C(F)(F)OC(F)(F)F [Perfluoro-3,6-dioxaheptanoic acid]
Method: as §1

[7] = compound: C=CC(=O)OCC(F)(F)C(F)(F)C(F)(F)C(F)(F)C(F)(F)C(F)(F)C(F)(F)F [1H,1H-Perfluorooctyl acrylate]
Method: as §1

[8] = compound: FC(F)(F)C(F)(F)C(F)(F)C(F)(F)C(F)(F)CCI [1-Iodo-1H,1H,2H,2H-perfluoroheptane]
Method: as §1

[9] = compound: OCCC(F)(F)C(F)(F)C(F)(F)C(F)(F)C(F)(F)C(F)(F)F [6:2 Fluorotelomer alcohol]
Method: as §1

Perfluoro-1-iodohexane = compound: FC(F)(F)C(F)(F)C(F)(F)C(F)(F)C(F)(F)C(F)(F)I [Perfluoro-1-iodohexane]
Method: as §1

[10] = compound: OCC(F)(F)OC(F)(F)C(F)(F)OC(F)(F)CO [1H,1H,8H,8H-Perfluoro-3,6-dioxaoctane-1,8-diol]
Method: as §1

[11] = compound: O=S(=O)(O)C(F)(F)C(F)(F)C(F)(F)C(F)(F)C(F)(F)C(F)(F)F [Perfluorohexanesulfonic acid]
Method: as §1

Test System	LOEC (log10 uM) [1]	LOEC (log10 uM) (Perfluorodecanoic acid)	LOEC (log10 uM) [2]	LOEC (log10 uM) [3]	LOEC (log10 uM) [4]	further results
BF4T tPA down	1.3	1.3	1.07 ± 0.32	1.78	–	–
IMphg IL8 up	–	–	1.78	–	1.78	LOEC (log10 uM) (Perfluoroheptanoic acid): 1.78; LOEC (log10 uM) [5]: 1.78; LOEC (log10 uM) [6]: 1.78
BT xIL17F down	1.3	–	–	1.3	1.3	LOEC (log10 uM) [7]: 1.3
hDFCGF ITAC down	1.78	1.3	1.54 ± 0.34	1.3	1.07 ± 0.32	LOEC (log10 uM) [8]: 1.78; LOEC (log10 uM) [9]: 1.78
BE3C HLADR down	1.78	1.3	1.07 ± 0.32	1.78	1.3	–
hDFCGF Proliferation down	–	1.3	–	0.845	0.573 ± 0.39	LOEC (log10 uM) [7]: 1.78; LOEC (log10 uM) [8]: 1.3; LOEC (log10 uM) [9]: 1.78
hDFCGF SRB up	–	–	1.54 ± 0.34	–	–	–
MyoF PAI1 down	1.78	1.78	–	1.78	–	LOEC (log10 uM) (Perfluoro-1-iodohexane): 1.78
MyoF MMP1 up	1.78	–	–	–	1.3	LOEC (log10 uM) (Perfluoro-1-iodohexane): 1.3
BE3C IP10 down	1.78	0.845	1.78	1.78	1.3	–
BF4T Eotaxin3 down	–	1.3	0.845	1.31 ± 0.66	–	LOEC (log10 uM) [8]: 1.78
IMphg CD40 down	1.54 ± 0.34	1.78	–	1.78	–	LOEC (log10 uM) [10]: 1.3
BF4T PAI1 down	–	1.3	0.845	1.78	–	–
3C SRB down	1.78	1.78	–	1.3	1.07 ± 0.32	LOEC (log10 uM) [9]: 1.78
BF4T ICAM1 down	–	1.3	1.07 ± 0.32	1.78	–	–
hDFCGF SRB down	1.78	1.78	–	1.3	0.573 ± 0.39	LOEC (log10 uM) [9]: 1.78
BE3C MMP1 up	1.78	–	1.78	–	0.845	LOEC (log10 uM) [8]: 1.54 ± 0.34; LOEC (log10 uM) [11]: 1.78
IMphg IL10 down	1.3	1.78	1.78	–	–	LOEC (log10 uM) [11]: 1.78

Test System	LOEC (log10 uM) [1]	LOEC (log10 uM) (Perfluorodecanoic acid)	LOEC (log10 uM) [2]	LOEC (log10 uM) [3]	LOEC (log10 uM) [4]	further results
MyoF CollagenI down	1.78	1.3	–	1.78	1.3	LOEC (log10 uM) (Perfluoro-1-iodohexane): 1.78
MyoF SRB down	1.78	1.54 ± 0.34	–	1.78	1.3	LOEC (log10 uM) (Perfluoro-1-iodohexane): 1.3
BT Bcell Proliferation up	–	1.78	1.78	–	–	–
hDFCGF MCSF down	–	1.3	–	1.3	1.07 ± 0.32	LOEC (log10 uM) [8]: 1.78
BF4T MCP1 down	–	1.3	0.573 ± 0.39	1.54 ± 0.34	–	–
MyoF VCAM1 down	1.78	1.54 ± 0.34	–	1.78	1.3	LOEC (log10 uM) (Perfluoro-1-iodohexane): 1.54 ± 0.34
4H Pselectin up	–	–	1.78	–	–	–
CASM3C Proliferation down	–	–	–	1.3	1.3	LOEC (log10 uM) [8]: 1.54 ± 0.34
3C Proliferation down	1.78	1.78	–	1.07 ± 0.32	0.573 ± 0.39	LOEC (log10 uM) [7]: 1.78; LOEC (log10 uM) [8]: 1.78; LOEC (log10 uM) [9]: 1.78
hDFCGF VCAM1 down	1.78	0.801 ± 0.71	–	1.3	1.54 ± 0.34	LOEC (log10 uM) [8]: 1.78; LOEC (log10 uM) [9]: 1.78
MyoF ACTA1 down	1.3	1.78	–	1.78	1.3	LOEC (log10 uM) (Perfluoro-1-iodohexane): 1.3
hDFCGF MCP1 down	1.78	1.78	–	1.3	1.3	LOEC (log10 uM) [9]: 1.78
MyoF CollagenIII down	1.78	1.3	–	1.78	1.3	LOEC (log10 uM) (Perfluoro-1-iodohexane): 1.78
hDFCGF IP10 down	1.78	1.07 ± 0.32	–	1.3	1.07 ± 0.32	LOEC (log10 uM) [8]: 1.78
BT PBMCCytotoxicity up	–	–	1.78	–	–	–
hDFCGF MMP1 down	–	1.3	1.3	1.3	1.78	–
LPS IL8 up	–	–	1.54 ± 0.34	–	–	LOEC (log10 uM) [5]: 1.54 ± 0.34
